Data: US11608320B2, “Oxazolidinone hydroxamic acid derivatives” (KUWAIT UNIVERSITY, priority 2020, dated 2023)

Columns and labels:
[1] = tested on: antigen-induced airway hyperresponsiveness to methacholine; assay: Allergen-induced airway hyperresponsiveness (AHR) in mouse model of asthma; type: in vivo; settings: 15 or 30 mg/kg s.c., 1 h before and 1 h after each ovalbumin challenge
Procedure: Inhibition of allergen-induced Airway hyperresponsiveness (AHR) and inflammation in mouse model of asthma; Immunization, challenge and drug treatment: Female mice, as specified above, were immunized intraperitoneally (i.p.) with 10 μg ovalbumin mixed with 0.2 ml of aluminum hydroxide gel (Alu-Gel-S; SERVA Electrophoresis GmbH, Heidelberg, Germany), on day 0 and repeated on day 7. On day 14, after the start of immunization, the animals were challenged intra-nasally, once a day for 4 consecutive days, with 50 μl of 0.06% ovalbumin solution in PBS. Control animals were similarly immunized with PBS and challenged intra-nasally with 50 μl PBS. All intra-nasal administrations were done following light anesthesia with halothane.
The animals were divided into 5 groups A-E (10-14 animals per group). […]
Different treatment groups were used for the AHR and cytology/histology studies. Twenty four hours after the last intra-nasal challenge/drug treatment, lung function was measured in some animals while in others bronchoalveolar lavage (BAL), cytology and histology were performed after they were sacrificed with overdose of halothane.
Measurement of AHR: AHR was measured in individual mice using a Finepoint Series RC site (Buxco Research Systems, Wilmington, N.C., USA), according to the manufacturer's guidelines. […]

[2] = tested on: zymosan-induced peritonitis; assay: Zymosan-induced peritoneal inflammation in mice; type: in vivo, mouse; settings: 30 min before zymosan i.p., peritoneal exudate at 2 h
Source text: Inhibition of zymosan-induced peritoneal inflammation in mice: Female Balb/c mice, 6-8 weeks old, obtained from the Animal Resources Center of the Health Sciences Center, Kuwait University, were used. They were maintained under temperature-controlled conditions with an artificial 12-h light/dark cycle and allowed standard chow and water ad libitum. The study protocol was approved by the “Health Sciences Center Animal Welfare Committee” and complied with the “Guidelines for the Care and Use of Laboratory Animals” of the Health Sciences Centre, Kuwait University. The zymosan-induced peritonitis model-a recognized LT-mediated inflammatory reaction, described particularly in Hanke et al., 2013 ([…]., et al. (2013). Journal of medicinal chemistry, 56(22), 9031-9044) was used. […] After 30 min, all groups were injected intraperitonally with 0.2 ml of activated zymosan (2 mg/ml) except the control group that received 0.2 ml PBS. After 2 h, all animals were killed and the peritoneal exudate was collected by washing the cavity with 3 ml of heparinized (10 IU/ml) PBS.

[3] = tested on: degranulation of bone marrow-derived mouse mast cells; assay: Inhibition of degranulation (β-hexoseaminidase release) in allergen/IgE-activated BMMC; type: cell-based; settings: anti-DNP IgE sensitized, DNP-BSA 30 ng/ml, 30 min
Source text: Inhibition of LTC4 release and degranulation in allergen/IgE-activated bone marrow-derived mouse mast cells (BMMC): Bone marrow-derived mast cells (BMMC) were generated from pathogen-free 5-7 week old male Balb/c mice according to the method of Davis et al., [2004] (Davis, B. J., et al., (2004), Journal of Immunology, 173: 6914-6920). Essentially, bone marrow cells were obtained by flushing of the femoral bone marrow and cultured in RPMI 1640 medium supplemented with 10% FBS, 100 U/ml penicillin, and 100 μg/ml streptomycin, 25 mM HEPES, 1.0 mM sodium pyruvate, 0.1 mM nonessential amino acids, 0.0035% 2-mercaptoethanol, and 30 ng/ml mouse recombinant IL-3, with culture medium replaced every two days. Cells were used after 4-8 weeks of culture, by which time at least 97% of the cells would have differentiated into mast cells.
The generated BMMCs were seeded at 5×10^4 cells/well in a 96-well flat-bottom culture plate and passively sensitized overnight with 0.5 μg/ml anti-DNP monoclonal IgE antibody (clone SPE-7, Sigma-Aldrich, St. Louis, Mo., USA). The cells were then washed twice to remove any unbound antibody and subsequently re-suspended in reaction buffer (135 mM NaCl, 5 mM KCl, 1.8 mM CaCl2), 1 mM MgCl2, 5.6 mM glucose, 0.05% BSA and 20 mM HEPES, pH 7.4). […] After 30 min incubation at 37° C., the amount of LTC4 released into the supernatant (as index of 5-LO activity) was determined by ELISA as described below.
The concurrently-released granular enzyme, β-hexoseaminidase (as index of degranulation) was determined as described below.
The beta-hexoseaminidase released into the supernatant by the degranulating BMMCs was determined colorimetrically using p-nitrophenyl-N-acetyl-β-D-glucosaminide as substrate. […] The absorbance of the colored product (p-nitrophenol) was then read at 405 nm in a microplate reader. Results were expressed as percentage of the total cell content (determined in cells lysed with 0.1% triton-x-100).

## CCCCCCCC(=O)N(O)C[C@H]1CN(c2ccc(N3CCOCC3)c(F)c2)C(=O)O1 [PH-251, (R)—N-((3-(3-fluoro-4-morpholinophenyl)-2-oxooxazolidin-5-yl)methyl)-N-hydroxyoctanamide]
[1]
  Development of antigen-induced AHR to inhaled methacholine (FIGS. 4A-4B): almost completely abolished the development of AHR
[2]; 3 mg/kg s.c.
  Net Exudate Vol: 0.24 ± 0.05 mL
  Total Cell No: 21.1 ± 1.6 ×10^6
  Total LTC4: 101.7 ± 20.2 ng
[2]; 10 mg/kg s.c.
  Net Exudate Vol: 0.12 ± 0.08 mL
  Total Cell No: 16.4 ±17 ×10^6
  Total LTC4: 77.4 ± 16.8 ng
[2]; 30 mg/kg s.c.
  Net Exudate Vol: 0.04 ± 0.02 mL
  Total Cell No: 17.6 ± 2.1 ×10^6
  Total LTC4: 33.9 ± 4.9 ng
other
  melting point: 119 to 122 °C
[3]
  Inhibition of degranulation (release of granular β-hexoseaminidase) (FIG. 2B): able to inhibit degranulation
